Test results taken from article doi:10.1101/2025.08.18.25333496, “A Phase 0 Window of Opportunity Trial of LB100, a Protein Phosphatase 2A Inhibitor, in Patients with Recurrent Gliomas” (medRxiv, 2025).
Read-outs that look alike come from different tables or passages of the source.

Assays:
[1] = system: PP2A; design: method as in Lixte Biotechnology, Investigators Brochure, unpublished; conditions: mice, brain region with intact BBB; ref Lixte Biotechnology, Investigators Brochure, unpublished; cited from earlier work
[2] = clinical; conditions: human, in vivo
Description: (§1) In this current trial, a single dose of LB100 was infused over two hours (+/− 15 minutes) starting two to four hours before surgery.
(§2) Blood and plasma samples for PK measurements were also performed on all participants. Samples were collected at the following time points: 1) Pre-dose; 2) End of infusion (2 hours post-start); 3) 30 minutes post LB100 infusion completion; 4) 1 hour post LB-100 infusion completion; 5) 2 hours post LB100 infusion completion; 6) 4 hours post LB100 infusion completion; 7) 8 hours post LB100 infusion completion.
(§3) LB100 concentration in clinical PK samples (plasma and tumor tissue), was quantified using a validated and robust LC-MS/MS assay developed at the NCI that used LB-105 as an internal standard. This analysis was performed blinded to tumor type. Plasma samples were pre-treated with 50 mM NaOH and tissue samples were homogenized in acetonitrile at a concentration of 100 mg/mL Briefly, samples were mixed with aqueous 10 mM triethylamine (TEA) containing internal standard followed by protein precipitation with 0.5% TEA in acetonitrile. Samples were processed alongside calibration and quality control (QC) standards, ranging from 2–1000 ng/mL (~7.5–3700 nM) and 3–10,000 pg/mg (~1.2–3700 nM) for plasma and brain tissue, respectively. […] The analyte and internal standard were chromatographically separated using a Waters Acquity UPLC BEH C18 (1.7-μm, 2.1×50mm) on a Waters Acuity UPLC system (Waters Corp., Milford, MA). A gradient mobile phase consisting of 5 mM ammonium bicarbonate (aq) and acetronitrile was flowed at a rate of 0.5 to 1 mL/min; the injection volume was 5 uL. After chromatographic separation, the compounds were eluted and detected using a AbSciex QTrap 5500 tandem mass spectrometer in positive ion electrospray mode; MRM transitions were m/z 269.1 → 101.0 and 283.2 → 115.1 for LB-100 and LB-105, respectively.
(§4) Plasma PK was analyzed via a non-compartmental approach using Phoenix WinNonlin v8.3 (Certara Corp, Cary, NC) that was validated per FDA 21CFR Part 11 Regulations. The maximum plasma concentration (Cmax) and the time of Cmax (Tmax) were reported as observed values. A rate constant of the terminal phase, λz, was calculated from the concentration-time curve using uniformly weighted least-squares as the estimation procedure and acceptance criteria of i) r^2 > 0, ii) includes >3-time points. […] Estimated pharmacokinetic parameters included half-life (t1/2; inverse of λz), volume of distribution (Vd; dose divided by product of λz and AUCINF), and clearance (CL; dose divided by AUCINF). Drug concentrations in brain tissue samples were reported and % brain penetrance was approximated via the ratio of brain tissue drug concentration to plasma drug concentrations from matched timepoints post-tissue collection.

[3] = in vivo
Description: After LB100 infusion and craniotomy all patients were evaluated in person 1–3 days following surgery and followed for at least 30 days after infusion of LB100 for toxicities and adverse events (AEs). All adverse events, including clinically significant abnormal findings on laboratory evaluations, regardless of severity, were followed until return to baseline or stabilization of event. Adverse events were documented from the first study intervention (study day 1) through the final safety visit (study day 30). Beyond 30 days only adverse events which were serious and related to the study intervention were recorded. The descriptions and grading scales found in the revised NCI Common Terminology Criteria for Adverse Events (CTCAE) version 5.0 were utilized for AE reporting.
During the first post-operative week after infusion with LB100, an EKG, renal function tests and liver function tests were performed. Two to three weeks following discharge from the hospital, all patients were given a physical exam and additional blood testing. At approximately 30 days post-craniotomy patients were questioned to determine whether any new AEs had occurred, and any ongoing AEs were followed up on. Prior to removal from the study, at approximately 30 days following drug infusion, all subjects completed a final safety evaluation.

[4] = clinical; design: species or system human; conditions: in vivo
Description: Glioma tissue sampling to detect and quantify LB100 was performed post-dose in each patient, with resection time points from the end of the LB100 infusion recorded. After ensuring adequate diagnostic tissue, remaining tissue was used for PK analysis. Briefly, removed tissues were rinsed with saline immediately (to remove LB100-containing blood and avoid falsely elevated LB100 measurements), then divided, flash-frozen, and stored at −80°C for future batch analysis.
This analysis was performed blinded to tumor type.

[5] = design: method as in PMID 28039265; conditions: dose level above the established safe dose; cited from earlier work
[6] = human, in vivo
Description: as §1, §2, §3, §4

[7] = target: protein phosphatase 2A (PP2A); conditions: cited from earlier work
[8] = design: method as in Lixte Biotechnology, Investigators Brochure, unpublished; conditions: ref Lixte Biotechnology, Investigators Brochure, unpublished, cited from earlier work
[9] = one-time administration equivalent to human maximum tolerated dose

## CN1CCN(C(=O)C2C(C(=O)O)[C@H]3CC[C@@H]2O3)CC1 (some centres unmarked) [LB100]
[1]
  PP2A enzymatic activity in the lateral habenula: significantly decrease PP2A enzymatic activity
[2]
  Vd: 21.7 L
  clearance: 195 mL/min
  Cmax: 146 ng/mL
[2]; AUCinf
  AUC(0-inf): 414 ng·h/mL
[2]; range
  Cmax: 95 to 179 ng/mL
[2]; T1/2
  half-life: 72 min
[2]; TMAX
  Tmax: 2.1 h
[2]; Tmax, range
  Tmax: 2.07 to 2.63 h
[2]; plasma drug exposure (AUCINF), range
  AUC(0-inf): 325 to 468 ng·h/mL
[2]; plasma half-life (T1/2), range
  half-life: 65.4 to 87.6 min
[3]; human, 30 days
  AEs related to LB100: No AEs were thought to be related to LB100
  total number of AEs: 30
[3]
  AEs rated as serious (grade 3 or 4): Four
[4]; human
  % Brain Pen (ratio of brain:plasma concentrations): 0.31% (159%)
  Kp: 0.0031
  concentration at 5.68 h: 0.51 ng/g
  concentration of LB100 in tumor tissue, range: 0 to 0.67 nM
  percent of drug penetration into the brain, range: 0% to 1.04%
[4]
  difference in drug levels between contrast and non-contrast regions of tumor: no significant difference in drug levels
[5]
  patients with grade 3 increases in creatinine clearance: 2 of 4
[6]
  T1/2: 1.27 (13%) hr
  plasma concentration of LB100 at the time of biopsy, range: 30.81 to 132.26 nM
[7]; in glial cell lines, read-out: IC50 of PP2A
  IC50: 200 to 400 nM
[7]; previously established, read-out: minimum IC50 targeting protein phosphatase 2A
  IC50: 200 nM
[8]; animal studies
  mean Cmax in plasma: 1110~3664 ng/ml
  mean Cmax in the brain: 17.4~43.5 ng/kg
[8]; [9]
  animals with LB100 detected in implanted tumor: 1 of 3
  animals with LB100 detected in normal brain and liver: 2 of 3
